Assay [1] addresses T1, purified PDE1A enzyme (Homo sapiens, UniProt P54750). Kind of assay: In vitro PDE1A assay, dose response (Biomol Cyclic Nucleotide Phosphodiesterase Assay Kit, colorimetric). The assay is classed as biochemical. Particulars: for IC50: 100 μM cAMP, 45 min at 37° C., 8 points from 20 μM, duplicate. The method in brief: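 Purified PDE1A with 100 μM cAMP and 5′-nucleotidase, incubated 45 min at 37° C in Tris 20 mM pH 7.4 with calmodulin, MgCl2 and CaCl2; released phosphate read by malachite-green absorbance at 615 nm. Duplicate 8-point ⅓ dilutions from 20 μM in 1% DMSO; 10 μM vardenafil defines 100% inhibition.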

Assay [2] deals with T1, purified PDE1A enzyme. The assay can be described thus: In vitro PDE1A primary screening assay (Cisbio cAMP dynamic htrf kit). It is filed as biochemical. The settings on record: 100 nM cAMP; for inhibition at 10 µM: read-out: inhibition of PDE1A (control compounds, primary screening). The source says:
For the primary screening, an assay using the cAMP dynamic htrf kit from Cisbio (catnr 62AM2PEB) was used. Its principle is based on HTRF® technology (Homogeneous Time-Resolved Fluorescence). The method is a competitive immunoassay between native cAMP and the cAMP labeled with XL665. The tracer binding is visualized by a monoclonal antibody against cAMP, labeled with Cryptate. The specific signal (i.e. energy transfer) is inversely proportional to the concentration of cAMP in the sample (see FIG. 1).
For the enzymatic reaction a mix of 20 μL is made with purified PDE1A enzyme, 100 nM cAMP and the compound (10 μM in a final concentration of 1% DMSO) in a black 384-plate. The reaction buffer is Tris 20 mM pH 7.4, 4 μg/mL calmodulin, 3 mM MgCl2, 1.5 mM CaCl2, 0.2 mg/mL BSA and 0.001% Brij-35. After an incubation of 30 minutes at room temperature, the reaction is stopped by the addition of 10 μL labelled cAMP-XL665 and 10 μL anti-cAMP-Cryptate. After 1 hour incubation at room temperature, the readout is performed on the Envision (excitation 360 nm; emission donor 615 nm emission acceptor 665 nm).
PDE1A hydrolyses cAMP into 5′AMP; this low cAMP concentration will result in a high signal. A PDE1A inhibitor will result in a decrease of the signal.
As a positive control we used 10 μM Vardenafil (100% inhibition), as negative control is used 1% DMSO (0% inhibition), as variable control 10 μM Zaprinast (+/−50% inhibition) is used and as negative control compound 10 μM Ro-20-1724 (0% inhibition). The positive and negative control were used to calculate z′ and PIN values.
All compounds were screened in single at 10 μM. The hit criterium was set at PIN 50 (50% inhibition).

Molecules are shown by their SMILES.

Consider `CCCc1nn(C)c2c(=O)[nH]c(N(Cc3cccc(N4CCN(C)CC4)c3)CC(C)C)nc12` [Example 102, 5-(isobutyl(3-(4-methylpiperazin-1-yl)benzyl)amino)-1-methyl-3-propyl-1H-pyrazolo[4,3-d]pyrimidin-7(6H)-one], for which the IC50 (usually the concentration that inhibits the measured activity by half) against purified PDE1A enzyme [1] is less than 100 nM. As for `Cn1nc(C(C)(C)C)c2nc(N(CCC(C)(C)C)Cc3cccc(N4CCOCC4)c3)[nH]c(=O)c21` [Example 103, 3-tert-butyl-5-((3,3-dimethylbutyl)(3-morpholinobenzyl)amino)-1-methyl-1H-pyrazolo[4,3-d]pyrimidin-7(6H)-one], the IC50 at purified PDE1A enzyme [1] was less than 100 nM. The same measure, in the same setting: the same measure for `CCCC(C)CN(Cc1cccc(N2CCOCC2)c1)c1nc2c(C(C)(C)C)nn(C)c2c(=O)[nH]1` (stereo not shown) [Example 104, 3-tert-butyl-1-methyl-5-((2-methylpentyl)(3-morpholinobenzyl)amino)-1H-pyrazolo[4,3-d]pyrimidin-7(6H)-one]: less than 100 nM. As to `CCC(CC)CN(C)c1nc2c(C(C)(C)C)nn(C)c2c(=O)[nH]1` [Example 105, 3-tert-butyl-5-((2-ethylbutyl)(methyl)amino)-1-methyl-1H-pyrazolo[4,3-d]pyrimidin-7(6H)-one], at purified PDE1A enzyme [1], the IC50 was less than 100 nM. On purified PDE1A enzyme [1], `CCCc1nn(C)c2c(=O)[nH]c(N(CCC(C)C)Cc3cccc(-n4cccn4)c3)nc12` [Example 106] gave a half-maximal inhibitory concentration (IC50) of less than 100 nM. Still for that read-out and setting: the same measure for `CCCc1nn(C)c2c(=O)[nH]c(N(Cc3cccc(-n4cccn4)c3)CC(CC)CC)nc12` [Example 107]: less than 100 nM. As to `CCCc1nn(C)c2c(=O)[nH]c(N(CCC(C)(C)C)Cc3cccc(N4CCOCC4)c3)nc12` [Example 108, 5-((3,3-dimethylbutyl)(3-morpholinobenzyl)amino)-1-methyl-3-propyl-1H-pyrazolo[4,3-d]pyrimidin-7(6H)-one], on purified PDE1A enzyme [1], the IC50 is less than 100 nM. For `CCC(CC)CN(Cc1cccc(N2CCOCC2)c1)c1nc2c(C(C)(C)C)nn(C)c2c(=O)[nH]1` [Example 109, 3-tert-butyl-5-((2-ethylbutyl)(3-morpholinobenzyl)amino)-1-methyl-1H-pyrazolo[4,3-d]pyrimidin-7(6H)-one], the IC50 at purified PDE1A enzyme [1] was less than 100 nM. For `CCCc1nn(C)c2c(=O)[nH]c(N(C)CCC(C)(C)C)nc12` [Example 110, 5-((3,3-dimethylbutyl)(methyl)amino)-1-methyl-3-propyl-1H-pyrazolo[4,3-d]pyrimidin-7(6H)-one], on purified PDE1A enzyme [1], the IC50 was less than 100 nM. The compound `CN(CCC(C)(C)C)c1nc2c(C(C)(C)C)nn(C)c2c(=O)[nH]1` [Example 111, 3-tert-butyl-5-((3,3-dimethylbutyl)(methyl)amino)-1-methyl-1H-pyrazolo[4,3-d]pyrimidin-7(6H)-one] displayed an IC50 against purified PDE1A enzyme [1] of less than 100 nM. Same read-out and setting: the same measure for `CCCc1nn(C)c2c(=O)[nH]c(N(C)CC(C)CC)nc12` (stereo not shown) [Example 112, 1-methyl-5-(methyl(2-methylbutyl)amino)-3-propyl-1H-pyrazolo[4,3-d]pyrimidin-7(6H)-one]: 101 to 500 nM. `CCCc1nn(C)c2c(=O)[nH]c(N(Cc3cccc(N4CCOCC4)c3)CC(C)CCC)nc12` (stereo not shown) [Example 113, 1-methyl-5-((2-methylpentyl)(3-morpholinobenzyl)amino)-3-propyl-1H-pyrazolo[4,3-d]pyrimidin-7(6H)-one] gave a 50% inhibitory concentration (IC50) against purified PDE1A enzyme [1] of less than 100 nM. On the same count and under the same terms, with `CCCc1nn(C)c2c(=O)[nH]c(N(Cc3cccc(N4CCOCC4)c3)CC(C)CC)nc12` (stereo not shown) [Example 114, 1-methyl-5-((2-methylbutyl)(3-morpholinobenzyl)amino)-3-propyl-1H-pyrazolo[4,3-d]pyrimidin-7(6H)-one] the figure was less than 100 nM. Same read-out and setting: the same measure for `CCCC(C)CN(C)c1nc2c(C(C)(C)C)nn(C)c2c(=O)[nH]1` (stereo not shown) [Example 115, 3-tert-butyl-1-methyl-5-(methyl(2-methylpentyl)amino)-1H-pyrazolo[4,3-d]pyrimidin-7(6H)-one]: less than 100 nM.

Compound `CCCc1nn(C)c2c(=O)[nH]c(N(Cc3cccc(-n4cncn4)c3)CC(C)CC)nc12` (stereo not shown) [Example 116] showed an IC50 against purified PDE1A enzyme [1] of less than 100 nM.

Consider `CCC(C)CN(Cc1cccc(N2CCOCC2)c1)c1nc2c(C(C)(C)C)nn(C)c2c(=O)[nH]1` (stereo not shown) [Example 117, 3-tert-butyl-1-methyl-5-((2-methylbutyl)(3-morpholinobenzyl)amino)-1H-pyrazolo[4,3-d]pyrimidin-7(6H)-one], for which the IC50 at purified PDE1A enzyme [1] is less than 100 nM. For the compound `CCC(C)CN(Cc1cccc(-n2cncn2)c1)c1nc2c(C(C)(C)C)nn(C)c2c(=O)[nH]1` (stereo not shown) [Example 118], at purified PDE1A enzyme [1], the IC50 is less than 100 nM. At purified PDE1A enzyme [1], `CCCc1nn(C)c2c(=O)[nH]c(N(Cc3cccc(-n4cccn4)c3)CC(C)(C)C)nc12` [Example 119] yielded an IC50 of less than 100 nM.

At purified PDE1A enzyme [1], `CCCc1nn(C)c2c(=O)[nH]c(NCc3ccc(S(N)(=O)=O)cc3)nc12` [Example 120, 4-((1-methyl-7-oxo-3-propyl-6,7-dihydro-1H-pyrazolo[4,3-d]pyrimidin-5-ylamino)methyl)benzenesulfonamide] gave an IC50 of more than 500 nM. Same read-out and setting: the same measure for `CCC(CC)CN(Cc1cccc(-n2cccn2)c1)c1nc2c(C(C)(C)C)nn(C)c2c(=O)[nH]1` [Example 121]: less than 100 nM; for `CCCC(C)CN(Cc1cccc(-n2cccn2)c1)c1nc2c(C(C)(C)C)nn(C)c2c(=O)[nH]1` (stereo not shown) [Example 122]: less than 100 nM. `CCCc1nn(C)c2c(=O)[nH]c(N(C)CC(C)CCC)nc12` (stereo not shown) [Example 123, 1-methyl-5-(methyl(2-methylpentyl)amino)-3-propyl-1H-pyrazolo[4,3-d]pyrimidin-7(6H)-one] returned an IC50 against purified PDE1A enzyme [1] of 101 to 500 nM. Still for that read-out and setting: with `CCn1nc(C(C)(C)C)c2nc(N(Cc3cccc(N4CCOCC4)c3)CC(C)C)[nH]c(=O)c21` [Example 124, 3-tert-butyl-1-ethyl-5-(isobutyl(3-morpholinobenzyl)amino)-1H-pyrazolo[4,3-d]pyrimidin-7(6H)-one] the figure was more than 500 nM; with `CCCN(CCC)c1nc2c(C3CC3)nn(C)c2c(=O)[nH]1` [Example 125, 3-cyclopropyl-5-(dipropylamino)-1-methyl-1H-pyrazolo[4,3-d]pyrimidin-7(6H)-one], 101 to 500 nM. For the compound `CCCCOc1cc(CC2CNC(=O)N2)ccc1OC` (stereo not shown) [Ro-20-1724], the “inhibition of PDE1A (control compounds, primary screening)” value on purified PDE1A enzyme [2] (10 μM) amounted to 0%. As to `CCCc1nc(C)c2c(=O)[nH]c(-c3cc(S(=O)(=O)N4CCN(CC)CC4)ccc3OCC)nn12` [Vardenafil, reference compound], the inhibition (usually the percentage by which the read-out fell short of the control) at 10 µM on purified PDE1A enzyme [1] (10 μM, read-out: inhibition of PDE1A (positive control, dose response assay)) came out at 100%; at purified PDE1A enzyme [2], 100%. As to `CCCOc1ccccc1-c1nc2nn[nH]c2c(=O)[nH]1` [Zaprinast], the inhibition at 10 µM at purified PDE1A enzyme [2] was approximately 50%.

The values are drawn from patent US20080242661A1, “Novel compounds useful for the treatment of degenerative & inflammatory diseases” (priority 2006, published 2008).
